Reference: the supplement of paper PMC4862054

How the values were obtained:
Settings in all cases: incubation time: 72 h
[1] = test system: BT-549; test: normalised viability (% of control), CellTiter-Blue; higher = more viable cells (about 100 = DMSO control)
Method in brief: (§1)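 Breast cancer cell lines in 20 µl suspension were seeded onto 384-well plates pre-loaded with compound dissolved in 5 µl medium, then incubated 72 h. CellTiter-Blue reagent (2.5 µl) was added for 2 h at 37 °C and fluorescence read at 560/590 nm. Each plate was normalised to vehicle (100) and a positive kill control (0), with Z'-factor quality control. The value is normalised viability at one listed concentration of the series.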

[2] = test system: DU-4475; test: as above
Method in brief: as §1

[3] = test system: HDQ-P1; test: as above
Method in brief: as §1

[4] = test system: CAL-85-1; test: as above
Method in brief: as §1

[5] = test system: CAL-51; test: as above
Method in brief: as §1

[6] = test system: MFM-223; test: as above
Method in brief: as §1

[7] = test system: HCC1937; test: as above
Method in brief: as §1

[8] = test system: BT-474; test: as above
Method in brief: as §1

[9] = test system: CAL-148; test: as above
Method in brief: as §1

[10] = test system: Hs578T; test: as above
Method in brief: as §1

[11] = test system: BT-549; test: drug sensitivity score (DSS), CellTox Green (DSS (AUC-based score)); higher = stronger drug effect (viability inhibition or cytotoxicity); extreme values may be limits of the assay
Method in brief: (§2)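 Each compound occupied 5 concentrations in 10-fold steps over its own 10,000-fold range in 384-well plates, into which breast cancer cell lines were seeded as 20 µl suspension. Following 72 h of incubation, CellTox Green fluorescence (485/520 nm) was measured, and CellTiter-Glo luminescence was measured after 10 min at room temperature. Plates were individually normalised to 0.1 % DMSO and a positive kill control. From the area under the fitted dose-response curve, a drug sensitivity score was calculated.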

[12] = test system: DU-4475; test: as above
Method in brief: as §2

[13] = test system: HDQ-P1; test: as above
Method in brief: as §2

[14] = test system: CAL-85-1; test: as above
Method in brief: as §2

[15] = test system: CAL-51; test: as above
Method in brief: as §2

[16] = test system: MDA-MB-468; test: as above
Method in brief: as §2

[17] = test system: MDA-MB-436; test: as above
Method in brief: as §2

[18] = test system: MDA-MB-231; test: as above
Method in brief: as §2

[19] = test system: CAL-120; test: as above
Method in brief: as §2

[20] = test system: HCC1143; test: as above
Method in brief: as §2

[21] = test system: BT-474; test: as above
Method in brief: as §2

[22] = test system: CAL-148; test: as above
Method in brief: as §2

[23] = test system: Hs578T; test: as above
Method in brief: as §2

[24] = test system: MDA-MB-453; test: as above
Method in brief: as §2

[25] = test system: HCC1599; test: as above
Method in brief: as §2

C=CC(=O)Nc1cc2c(Nc3ccc(F)c(Cl)c3)ncnc2cc1OCCCN1CCOCC1 [Canertinib]
normalised viability [%]
Settings	[1]	[2]	[3]	[4]	[5]	[6]	[7]	[8]	[9]	[10]
3 nM	–	107	106	82.5	110	–	–	–	81.8	–
10 nM	103	–	–	–	–	94.8	62.8	93.7	–	96
30 nM	–	113	90.6	67	105	–	–	–	88.8	–
100 nM	–	96.8	76	64.2	105	–	–	–	75.6	–
1000 nM	90.7	–	–	–	–	78.6	73.1	34.4	–	108
10000 nM	2.56	–	–	–	–	19.7	13.6	16.3	–	1.26

Settings	drug sensitivity score
[11]	0.986
[12]	0
[13]	3.34
[14]	8.99
[15]	5.83
[16]	5.52
[17]	0
[18]	3.46
[19]	2.34
[20]	0
[21]	3.65
[22]	0
[23]	6.15
[24]	0
[25]	0
